Laboratory results reported in the supplement of paper PMC10307832.

Legend:
Assay in all cases: relative viability (nuclei count vs DMSO), 5 days (fraction); higher = more cells survive
AZD1208 + Olaparib = compound: N[C@@H]1CCCN(c2c(/C=C3\SC(=O)NC3=O)cccc2-c2ccccc2)C1 [AZD1208] + O=C(c1cc(Cc2n[nH]c(=O)c3ccccc23)ccc1F)N1CCN(C(=O)C2CC2)CC1 [Olaparib] (partner 8 µM)
Summary of the method: (§1)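 Lung cancer cell lines in 1536-well plates were dosed by pin tool the day after seeding, either with one drug alone or with a fixed anchor-drug dose plus five library-drug doses (not always all listed) in √10 steps. After 5 days, cells were fixed and their nuclei stained in one step (final 0.05% Triton X-100, 1% formaldehyde, 1 ug/ml Hoechst), then counted on 4× images. Relative viability is the nuclei count in treated wells divided by that in vehicle wells. Values are medians of duplicate plates.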

AZD1208 + Pictilisib = compound: N[C@@H]1CCCN(c2c(/C=C3\SC(=O)NC3=O)cccc2-c2ccccc2)C1 [AZD1208] + CS(=O)(=O)N1CCN(Cc2cc3nc(-c4cccc5[nH]ncc45)nc(N4CCOCC4)c3s2)CC1 [Pictilisib] (partner 1 µM)
Summary of the method: as §1

XMD14-99 + Luminespib = compound: CN1CCN(CC1)C2=CC(=C(C=C2)NC3=NC(=C(S3)C(=O)C4=C(C=CC=C4Cl)Cl)N)OC [XMD14-99] + CCNC(=O)c1noc(-c2cc(C(C)C)c(O)cc2O)c1-c1ccc(CN2CCOCC2)cc1 [Luminespib] (partner 0.01 µM)
Summary of the method: as §1

XMD14-99 + Trametinib = compound: CN1CCN(CC1)C2=CC(=C(C=C2)NC3=NC(=C(S3)C(=O)C4=C(C=CC=C4Cl)Cl)N)OC [XMD14-99] + CC(=O)Nc1cccc(-n2c(=O)n(C3CC3)c(=O)c3c(Nc4ccc(I)cc4F)n(C)c(=O)c(C)c32)c1 [Trametinib] (partner 0.02 µM)
Summary of the method: as §1

Cell Line | relative viability (AZD1208 + Olaparib; first compound 0.08 µM) | relative viability (AZD1208 + Olaparib; first compound 0.253 µM) | relative viability (AZD1208 + Olaparib; first compound 0.8 µM) | relative viability (AZD1208 + Olaparib; first compound 2.53 µM) | relative viability (AZD1208 + Olaparib; first compound 8 µM) | relative viability (AZD1208 + Pictilisib; first compound 0.08 µM) | relative viability (AZD1208 + Pictilisib; first compound 0.253 µM) | relative viability (AZD1208 + Pictilisib; first compound 0.8 µM) | relative viability (AZD1208 + Pictilisib; first compound 2.53 µM) | relative viability (AZD1208 + Pictilisib; first compound 8 µM) | relative viability (XMD14-99 + Luminespib; first compound 0.08 µM) | relative viability (XMD14-99 + Luminespib; first compound 0.8 µM) | relative viability (XMD14-99 + Luminespib; first compound 2.53 µM) | relative viability (XMD14-99 + Luminespib; first compound 8 µM) | relative viability (XMD14-99 + Trametinib; first compound 0.08 µM) | relative viability (XMD14-99 + Trametinib; first compound 0.8 µM) | relative viability (XMD14-99 + Trametinib; first compound 2.53 µM) | relative viability (XMD14-99 + Trametinib; first compound 8 µM)
NCI-H441 | 0.578 | 0.529 | 0.545 | 0.502 | 0.366 | 0.343 | 0.427 | 0.34 | 0.314 | 0.305 | 0.351 | 0.352 | 0.311 | 0.276 | 0.523 | 0.436 | 0.389 | 0.263
NCI-H460 | 0.474 | 0.43 | 0.407 | 0.431 | 0.443 | 0.341 | 0.322 | 0.289 | 0.308 | 0.37 | 0.0305 | 0.037 | 0.0277 | 0.0243 | 0.32 | 0.228 | 0.126 | 0.089
NCI-H520 | 0.357 | 0.278 | 0.271 | 0.287 | 0.252 | 0.238 | 0.278 | 0.201 | 0.185 | 0.184 | 0.191 | 0.219 | 0.217 | 0.223 | 0.656 | 0.747 | 0.745 | 0.437
NCI-H596 | 0.706 | 0.563 | 0.717 | 0.632 | 0.564 | 0.388 | 0.349 | 0.366 | 0.348 | 0.328 | 1.05 | 1.11 | 0.917 | 0.983 | 0.749 | 0.849 | 1.06 | 0.764
NCI-H647 | 0.504 | 0.587 | 0.383 | 0.531 | 0.285 | 0.463 | 0.371 | 0.37 | 0.339 | 0.364 | 0.322 | 0.233 | 0.23 | 0.0995 | 0.456 | 0.495 | 0.582 | 0.442
NCI-H650 | 0.401 | 0.392 | 0.388 | 0.359 | 0.379 | 0.83 | 0.783 | 0.793 | 0.589 | 0.589 | 0.733 | 0.873 | 0.79 | 0.722 | 0.861 | 0.932 | 1.05 | 0.907
NCI-H661 | 0.762 | 0.754 | 0.728 | 0.745 | 0.758 | 0.417 | 0.391 | 0.34 | 0.342 | 0.355 | 0.855 | 0.778 | 0.697 | 0.55 | 0.573 | 0.598 | 0.481 | 0.516
NCI-H727 | 0.793 | 0.556 | 0.917 | 0.743 | 0.734 | 0.355 | 0.297 | 0.262 | 0.264 | 0.355 | 0.383 | 0.305 | 0.203 | 0.352 | 0.352 | 0.403 | 0.384 | 0.39
NCI-H838 | 0.789 | 0.796 | 0.72 | 0.759 | 0.753 | 0.374 | 0.427 | 0.343 | 0.378 | 0.366 | 0.28 | 0.293 | 0.239 | 0.235 | 0.502 | 0.486 | 0.433 | 0.357
NCI-H1355 | 0.717 | 0.689 | 0.672 | 0.68 | 0.657 | 0.419 | 0.39 | 0.35 | 0.349 | 0.306 | 0.843 | 0.799 | 0.67 | 0.617 | 0.439 | 0.434 | 0.355 | 0.33
NCI-H1395 | 0.479 | 0.432 | 0.406 | 0.421 | 0.381 | 0.694 | 0.618 | 0.553 | 0.554 | 0.644 | 0.733 | 0.685 | 0.699 | 0.555 | 0.992 | 1.05 | 0.958 | 1
NCI-H1437 | 0.651 | 0.648 | 0.606 | 0.673 | 0.676 | 0.369 | 0.388 | 0.271 | 0.246 | 0.247 | 1.12 | 0.992 | 0.949 | 0.862 | 0.532 | 0.402 | 0.347 | 0.305
NCI-H1650 | 0.712 | 0.787 | 0.839 | 0.856 | 0.796 | 0.529 | 0.575 | 0.434 | 0.395 | 0.41 | 0.21 | 0.208 | 0.189 | 0.188 | 0.642 | 0.738 | 0.542 | 0.503
NCI-H1651 | 0.198 | 0.186 | – | 0.172 | 0.172 | 0.395 | 0.556 | 0.394 | 0.38 | 0.408 | 0.939 | 0.647 | 0.63 | 0.644 | 0.827 | 0.835 | 0.88 | 0.835
NCI-H1666 | 0.762 | 0.766 | 0.673 | 0.693 | 0.768 | 0.359 | 0.553 | 0.353 | 0.309 | 0.374 | 1.05 | 0.936 | 0.949 | 0.88 | 0.883 | 0.699 | 0.739 | 0.864
NCI-H1734 | 0.679 | 0.575 | 0.554 | 0.544 | 0.449 | 0.393 | 0.373 | 0.347 | 0.343 | 0.293 | 0.175 | 0.179 | 0.172 | 0.185 | 0.659 | 0.68 | 0.653 | 0.642
NCI-H1755 | 0.835 | 0.83 | 0.841 | 0.849 | 0.66 | 0.377 | 0.441 | 0.368 | 0.326 | 0.283 | 0.464 | 0.396 | 0.305 | 0.369 | 0.794 | 0.777 | 0.752 | 0.559
